Key:
[1] = test system: SK-LMS-1 (Other Solid Carcinomas); experiment: Bliss excess, mean over the matrix (fraction); higher = more synergy
In short: (§1)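 Cell lines in DMEM/F12 or RPMI with 10% FBS were plated in 1536-well plates, held 24 hours at 37°C, 5% CO2, then given two-drug dose matrices for 72 hours (DMSO typically 0.2%). Viability was read by CellTiter-Glo 2.0 luminescence and scaled as inhibition from 0 (vehicle wells) to 1 (blank wells). Combination Emax is the second-highest inhibition in the matrix; Bliss excess is observed combination effect minus expected EA + EB − EA·EB, EA and EB being single-agent effects.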

[2] = test system: MSTO-211H (Mesothelioma); experiment: as above
In short: as §1

[3] = test system: SK-UT-1 (Other Solid Carcinomas); experiment: as above
In short: as §1

[4] = test system: WSU-DLCL2 (B-Cell Non-Hodgkin's Lymphoma); experiment: as above
In short: as §1

[5] = test system: FU-OV-1 (Ovarian Carcinoma); experiment: as above
In short: as §1

[6] = test system: SK-MEL-1 (Melanoma); experiment: as above
In short: as §1

[7] = test system: HCT-116 (Colorectal Carcinoma); experiment: combination Emax (second highest fraction inhibited in the dose matrix, 72 h); higher = more inhibition; extreme values may be limits of the assay
In short: as §1

[8] = test system: SW948 (Colorectal Carcinoma); experiment: as above
In short: as §1

[9] = test system: Saos-2 (Osteosarcoma); experiment: as above
In short: as §1

[10] = test system: MSTO-211H (Mesothelioma); experiment: as above
In short: as §1

[11] = test system: D-283MED (Other Solid Carcinomas); experiment: as above
In short: as §1

[12] = test system: MEG-01 (Chronic Myelogenous Leukemia); experiment: as above
In short: as §1

[13] = test system: P31-FUJ (Acute Myeloid Leukemia); experiment: as above
In short: as §1

[14] = test system: D-392MG (Glioblastoma); experiment: as above
In short: as §1

[15] = test system: WSU-DLCL2 (B-Cell Non-Hodgkin's Lymphoma); experiment: as above
In short: as §1

[16] = test system: DOK (Oral Cavity Carcinoma); experiment: as above
In short: as §1

[17] = test system: YT (Other Blood Carcinomas); experiment: as above
In short: as §1

[18] = test system: H4 (Low Grade Glioma); experiment: as above
In short: as §1

[19] = test system: FU-OV-1 (Ovarian Carcinoma); experiment: as above
In short: as §1

[20] = test system: SW48 (Colorectal Carcinoma); experiment: as above
In short: as §1
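Wherever Bliss excess, mean over the matrix is given: after 72 h of two-drug dosing.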

Structure (SMILES) | Bliss excess [1] | Bliss excess [2] | Bliss excess [3] | Bliss excess [4] | Bliss excess [5] | Bliss excess [6] | combination Emax [7] | combination Emax [8] | combination Emax [9] | combination Emax [10] | combination Emax [11] | combination Emax [12] | combination Emax [13] | combination Emax [14] | combination Emax [15] | combination Emax [16] | combination Emax [17] | combination Emax [18] | combination Emax [19] | combination Emax [20]
C=CCn1c(=O)c2cnc(Nc3ccc(N4CCN(C)CC4)cc3)nc2n1-c1cccc(C(C)(C)O)n1 [AZD1775] + CCc1c2c(nc3ccc(O)cc13)-c1cc3c(c(=O)n1C2)COC(=O)[C@]3(O)CC [SN-38] (first compound max 1 µM, partner max 0.3 µM) | -0.0441 | -0.0619 | -0.032 | 0.003 | -0.102 | 0.0154 | 0.866 | 0.862 | 0.964 | 0.783 | 0.996 | 0.964 | 0.985 | 0.569 | 1 | 0.745 | 0.977 | 0.908 | 0.711 | 0.857
C=CCn1c(=O)c2cnc(Nc3ccc(N4CCN(C)CC4)cc3)nc2n1-c1cccc(C(C)(C)O)n1 [AZD1775] + Nc1ccn([C@@H]2O[C@H](CO)[C@@H](O)C2(F)F)c(=O)n1 [Gemcitabine] (first compound max 1 µM, partner max 0.3 µM) | -0.027 | 0.0226 | -0.0194 | 0.0694 | -0.0741 | -0.0469 | 0.88 | 0.879 | 0.843 | 0.815 | 0.995 | 0.918 | 1 | 0.597 | 1 | 0.66 | 0.997 | 0.949 | 0.633 | 0.887
CN(CCO)CC[C@H](CSc1ccccc1)Nc1ccc(S(=O)(=O)NC(=O)c2ccc(N3CCC([C@@H](O)c4ccccc4-c4ccc(Cl)cc4)CC3)cc2)cc1S(=O)(=O)C(F)(F)F [AZD4320] + CC(=O)O[C@H]1C(=O)[C@@]2(C)[C@H]([C@H](OC(=O)c3ccccc3)[C@]3(O)C[C@H](OC(=O)[C@H](O)[C@@H](NC(=O)c4ccccc4)c4ccccc4)C(C)=C1C3(C)C)[C@]1(OC(C)=O)CO[C@@H]1C[C@@H]2O [Paclitaxel] (first compound max 1 µM, 7x7, partner max 3 µM) | 0.0954 | 0.105 | -0.0007 | -0.0101 | 0.0924 | 0.0354 | 1 | 0.942 | 0.968 | 0.881 | 1 | 0.991 | 1 | 1 | 1 | 0.99 | 1 | 1 | 0.716 | 1
CN(CCO)CC[C@H](CSc1ccccc1)Nc1ccc(S(=O)(=O)NC(=O)c2ccc(N3CCC([C@@H](O)c4ccccc4-c4ccc(Cl)cc4)CC3)cc2)cc1S(=O)(=O)C(F)(F)F [AZD4320] + CS(=O)(=O)CCNCc1ccc(-c2ccc3ncnc(Nc4ccc(OCc5cccc(F)c5)c(Cl)c4)c3c2)o1 [Lapatinib] (first compound max 1 µM, 7x7, partner max 10 µM) | 0.0357 | 0.0275 | 0.006 | 0.203 | -0.0203 | -0.0444 | 0.796 | 0.96 | 0.746 | 0.952 | 0.988 | 0.986 | 0.959 | 0.492 | 0.967 | 0.982 | 0.451 | 0.93 | 0.59 | 0.969
CN(CCO)CC[C@H](CSc1ccccc1)Nc1ccc(S(=O)(=O)NC(=O)c2ccc(N3CCC([C@@H](O)c4ccccc4-c4ccc(Cl)cc4)CC3)cc2)cc1S(=O)(=O)C(F)(F)F [AZD4320] + Nc1ccn([C@@H]2O[C@H](CO)[C@@H](O)C2(F)F)c(=O)n1 [Gemcitabine] (first compound max 1 µM, 7x7, partner max 0.3 µM) | 0.0273 | 0.0099 | 0.0159 | 0.0032 | -0.0498 | -0.0689 | 0.899 | 0.524 | 0.984 | 0.96 | 1 | 0.93 | 0.959 | 0.96 | 1 | 0.859 | 0.862 | 0.988 | 0.245 | 0.972
Cc1c2c(nn1C)CSCc1cc(n(C)n1)CSc1cc(c3ccccc3c1)OCCCc1c(C(=O)O)n(C)c3c-2c(Cl)ccc13 [AZD5991] + CC(=O)O[C@H]1C(=O)[C@@]2(C)[C@H]([C@H](OC(=O)c3ccccc3)[C@]3(O)C[C@H](OC(=O)[C@H](O)[C@@H](NC(=O)c4ccccc4)c4ccccc4)C(C)=C1C3(C)C)[C@]1(OC(C)=O)CO[C@@H]1C[C@@H]2O [Paclitaxel] (first compound max 1 µM, 7x7, partner max 3 µM) | -0.0569 | 0.0035 | 0.008 | -0.0151 | 0.0262 | -0.0045 | 0.981 | 0.884 | 0.961 | 0.391 | 1 | 0.881 | 1 | 0.734 | 1 | 0.977 | 1 | 0.995 | 0.474 | 0.994
Cc1c2c(nn1C)CSCc1cc(n(C)n1)CSc1cc(c3ccccc3c1)OCCCc1c(C(=O)O)n(C)c3c-2c(Cl)ccc13 [AZD5991] + CS(=O)(=O)CCNCc1ccc(-c2ccc3ncnc(Nc4ccc(OCc5cccc(F)c5)c(Cl)c4)c3c2)o1 [Lapatinib] (first compound max 1 µM, 7x7, partner max 10 µM) | -0.0101 | 0.0121 | 0.032 | 0.0601 | -0.0179 | 0.026 | 0.382 | 0.26 | 0.497 | 0.193 | 0.986 | 0.557 | 0.985 | 0.104 | 1 | 0.987 | 1 | 0.484 | 0.42 | 0.649
Cc1c2c(nn1C)CSCc1cc(n(C)n1)CSc1cc(c3ccccc3c1)OCCCc1c(C(=O)O)n(C)c3c-2c(Cl)ccc13 [AZD5991] + Nc1ccn([C@@H]2O[C@H](CO)[C@@H](O)C2(F)F)c(=O)n1 [Gemcitabine] (first compound max 1 µM, 7x7, partner max 0.3 µM) | -0.009 | -0.0131 | -0.0367 | 0.0128 | -0.0321 | -0.0226 | 0.828 | 0.334 | – | 0.861 | 0.986 | 0.745 | 0.992 | 0.642 | 1 | 0.684 | 1 | 0.949 | 0.196 | 0.822
C[C@@H]1COCCN1c1cc(C2([S@](C)(=N)=O)CC2)nc(-c2ccnc3[nH]ccc23)n1 [AZD6738] + C1CC(C1)(C(=O)[O-])C(=O)[O-].N.N.[Pt+2] [Carboplatin] (first compound max 10 µM, 7x7, partner max 10 µM) | -0.032 | -0.0319 | -0.0214 | 0.0217 | -0.0576 | -0.048 | 0.664 | 0.566 | 0.544 | 0.45 | 0.996 | 0.923 | 0.922 | 0.423 | 0.767 | 0.459 | 0.76 | 0.708 | 0.254 | 0.673
C[C@@H]1COCCN1c1cc(C2([S@](C)(=N)=O)CC2)nc(-c2ccnc3[nH]ccc23)n1 [AZD6738] + Nc1ccn([C@@H]2O[C@H](CO)[C@@H](O)C2(F)F)c(=O)n1 [Gemcitabine] (first compound max 10 µM, 7x7, partner max 0.3 µM) | 0.0139 | 0.0098 | 0.0317 | 0.0721 | -0.0143 | 0.0174 | 0.947 | 0.873 | 0.83 | 0.855 | 1 | 0.945 | 1 | 0.625 | 1 | 0.782 | 1 | 0.957 | 0.67 | 0.818
Cc1cc2ncnn2cc1Nc1ncc2c(n1)n(C1CCOCC1)c(=O)n2C [AZD7648] + COc1cc([C@@H]2c3cc4c(cc3[C@@H](O[C@@H]3O[C@@H]5CO[C@@H](C)O[C@H]5[C@H](O)[C@H]3O)[C@H]3COC(=O)[C@H]23)OCO4)cc(OC)c1O [Etoposide] (first compound max 10 µM, 7x7, partner max 10 µM) | 0.172 | 0.0624 | 0.117 | 0.185 | -0.0047 | 0.0651 | 0.725 | 0.524 | 0.827 | 0.783 | 0.979 | 0.854 | 0.967 | 0.489 | 1 | 0.572 | 0.974 | 0.756 | 0.603 | 0.883
N#Cc1cnc(Nc2cc(NC[C@H]3CNCCO3)c(C(F)(F)F)cn2)cn1 [SRA737] + CCc1c2c(nc3ccc(O)cc13)-c1cc3c(c(=O)n1C2)COC(=O)[C@]3(O)CC [SN-38] (first compound max 10 µM, 7x7, partner max 0.3 µM) | -0.0248 | -0.024 | -0.0033 | 0.0055 | -0.0076 | – | 0.818 | 0.834 | 0.948 | 0.705 | 0.994 | 0.946 | 0.984 | 0.453 | 1 | 0.582 | 0.987 | 0.832 | 0.495 | 0.854
N#Cc1cnc(Nc2cc(NC[C@H]3CNCCO3)c(C(F)(F)F)cn2)cn1 [SRA737] + O=c1[nH]cc(F)c(=O)[nH]1 [5-Fluorouracil] (first compound max 10 µM, 7x7, partner max 20 µM) | -0.0143 | 0.0301 | -0.0052 | 0.114 | -0.0284 | -0.0178 | 0.737 | 0.45 | 0.457 | 0.536 | – | 0.835 | 0.98 | 0.313 | – | 0.345 | 0.993 | 0.619 | 0.158 | 0.592

From the supplement of paper PMC11061612
